Patent US20230098667A1, “BENZODIAZEPINE DERIVATIVES, COMPOSITIONS, AND METHODS FOR TREATING COGNITIVE IMPAIRMENT” (priority 2019, published 2023)
“Also recorded” adds a separate entry of the source. Read-outs that look alike come from different tables or passages of the source.

How the values were obtained:
aged-impaired (AI) rats = experiment: Radial Arm Maze (RAM) behavioral task, two-hour delay; format: in vivo, rat; conditions: 3 mg/kg ip
Description: The effects of methyl 3,5-diphenylpyridazine-4-carboxylate on the in vivo spatial memory retention of aged-impaired (AI) rats were assessed in a Radial Arm Maze (RAM) behavioral task using vehicle control and four different dosage levels of methyl 3,5-diphenylpyridazine-4-carboxylate (0.1 mg/kg, 0.3 mg/kg, 1 mg/kg and 3 mg/kg, ip). RAM behavioral tasks were performed on eight AI rats. All five treatment conditions (vehicle and four dosage levels) were tested on all eight rats.
The RAM apparatus used consisted of eight equidistantly-spaced arms. An elevated maze arm (7 cm width×75 cm length) projected from each facet of an octagonal center platform (30 cm diameter, 51.5 cm height). Clear side walls on the arms were 10 cm high and were angled at […] to form a trough. A food well (4 cm diameter, 2 cm deep) was located at the distal end of each arm. Froot Loops™ (Kellogg Company) were used as rewards. Blocks constructed of Plexiglas™ (30 cm height×12 cm width) could be positioned to prevent entry to any arm. Numerous extra maze cues surrounding the apparatus were also provided.
The AI rats were initially subjected to a pre-training test (Chappell et al. Neuropharmacology 37: 481-487, 1998). […]

GABAA α5 receptor = biological target: T1, GABAA α5 receptor (Rattus norvegicus, UniProt P19969); experiment: GABAA α5 receptor occupancy with Ro 15-4513 tracer; format: in vivo, Long Evans rats
T1 construct: from tissue; host or cells: brain of living Long Evans rats; hippocampus and cerebellum dissected after i.v. dosing
Source text: (§1) Food and water were available ad libitum.

[1] = format: in vivo, Long Evans rats
Description: as §1
For plasma exposures, blood samples were centrifuged at 14000 rpm for 16 minutes. After centrifuging, 50 ul of supernatant (plasma) from each sample was added to 200 μl of acetonitrile plus 0.1% formic acid. […] Samples were sonicated for 5 minutes in an ultrasonic water bath, followed by centrifugation for 30 minutes, at 16000 RPM. 100 ul of supernatant was removed from each sample vial and placed in a new glass auto sample vial, followed by the addition of 300 μl of sterile water (pH 6.5).
Additional studies were conducted in aged Long-Evans rats in order to determine the exposures at the behaviorally relevant doses in the cognition studies. Exposure in young Long-Evans rats was also determined to bridge with the receptor occupancy studies that were conducted in young Long-Evans rats. Exposures in young and aged Long-Evans rats were relatively similar (Table 4, FIG. 4).

α5-containing GABAA R = biological target: T2, α5-containing GABAA R (Homo sapiens, UniProt P18507+P31644); conditions: cited from earlier work
T2 sequence (P31644 32-462): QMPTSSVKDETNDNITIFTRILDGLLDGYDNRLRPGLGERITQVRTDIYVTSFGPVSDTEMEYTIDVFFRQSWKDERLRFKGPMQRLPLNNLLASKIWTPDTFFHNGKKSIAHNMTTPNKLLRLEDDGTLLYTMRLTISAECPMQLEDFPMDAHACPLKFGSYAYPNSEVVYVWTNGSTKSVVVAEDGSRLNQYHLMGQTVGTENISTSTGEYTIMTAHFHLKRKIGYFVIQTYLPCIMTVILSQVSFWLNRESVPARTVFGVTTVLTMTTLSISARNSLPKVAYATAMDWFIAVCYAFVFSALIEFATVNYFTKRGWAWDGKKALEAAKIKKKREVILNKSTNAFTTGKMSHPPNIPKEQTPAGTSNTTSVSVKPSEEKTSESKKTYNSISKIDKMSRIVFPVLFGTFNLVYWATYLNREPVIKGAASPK
T2 sequence (P28472 26-473 partner): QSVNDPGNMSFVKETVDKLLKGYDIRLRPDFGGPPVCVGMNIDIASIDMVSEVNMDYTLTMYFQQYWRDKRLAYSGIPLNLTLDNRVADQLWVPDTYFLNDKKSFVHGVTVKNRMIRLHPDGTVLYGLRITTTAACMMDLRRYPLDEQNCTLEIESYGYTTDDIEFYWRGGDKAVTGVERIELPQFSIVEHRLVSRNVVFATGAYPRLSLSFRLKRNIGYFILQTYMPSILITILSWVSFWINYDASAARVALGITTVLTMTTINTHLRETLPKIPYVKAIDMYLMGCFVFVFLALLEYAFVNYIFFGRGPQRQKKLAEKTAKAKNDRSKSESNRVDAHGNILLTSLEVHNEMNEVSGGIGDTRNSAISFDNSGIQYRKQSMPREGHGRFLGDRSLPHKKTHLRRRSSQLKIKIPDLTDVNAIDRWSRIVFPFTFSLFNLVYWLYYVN
T2 sequence (P18507 40-467 limits assumed): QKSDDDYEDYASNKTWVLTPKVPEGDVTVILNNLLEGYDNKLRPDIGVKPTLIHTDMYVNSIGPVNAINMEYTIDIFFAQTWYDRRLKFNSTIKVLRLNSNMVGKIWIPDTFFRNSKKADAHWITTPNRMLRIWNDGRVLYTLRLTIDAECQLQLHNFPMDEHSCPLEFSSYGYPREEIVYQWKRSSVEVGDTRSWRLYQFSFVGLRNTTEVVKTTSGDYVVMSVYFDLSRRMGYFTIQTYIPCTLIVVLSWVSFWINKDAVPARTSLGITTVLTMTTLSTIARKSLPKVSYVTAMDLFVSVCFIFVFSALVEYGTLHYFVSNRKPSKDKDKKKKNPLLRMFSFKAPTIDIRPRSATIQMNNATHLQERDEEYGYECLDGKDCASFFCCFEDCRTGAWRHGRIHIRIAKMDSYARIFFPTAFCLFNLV

[2] = biological target: T3, GABAA receptors α5β3γ2 (GABA α5) (Homo sapiens, UniProt P18507+P31644); experiment: Binding activity on GABAAR: inhibition of [3H]Ro15-1788 binding, membranes of Ltk cells; conditions: α5β3γ2 Ltk cell membranes
T3 construct: membranes
T3 sequence (P31644 32-462): T2 sequence (P31644 32-462)
T3 sequence (P28472 26-473 partner): T2 sequence (P28472 26-473 partner)
T3 sequence (P18507 40-467 limits assumed): T2 sequence (P18507 40-467 limits assumed)
Description: (§2) Tissue culture and Membrane Preparation: The binding was performed on Ltk cells stably expressing GABAA receptors: α1β1γ2, α2β3γ2, α3β3γ2 and α5β3γ2 (provided by Merck Co., NJ, USA). Cells were seeded in 100 mm culture plates in DMEM/F12 medium containing 10% serum and antibiotics in 5% CO2 and allowed to grow for 1-2 days. GABAAR expression was then induced by dexamethasone as follows: 0.5 μM for 1 day for α5 containing and 2 μM for 3 days for α1, α2 and α3 containing GABAARs. After induction, cells were collected by scraping into Dulbecco's Phosphate buffered saline (DPBS, pH 7.4, Invitrogen, Carlsbad, Calif., USA) and centrifuged at 150×g for 10 min. The pellet was washed twice by re-suspension and centrifugation. The cell pellets from at least 5 different preps were combined, suspended in the binding assay buffer (50 mM KH2PO4; 1 mM EDTA; 0.2 M KCl, pH 7.4) and membranes prepared by sonication (3-5 times, 30 sec) using Branson Sonifier 150 (G. Heinmann, Germany). Protein content was determined using BCA assay (Bio-Rad Labs, Reinach, Switzerland) with Bovine Serum Albumin (Sigma Aldrich, St. Louis, Mo., USA) as the standard. Aliquots were prepared and stored at −20° C. for further use in binding assays.
(§3) Ligand Binding: Saturation binding curves were obtained by incubating membranes with increasing concentrations (0.01-8 nM) of [^3H]Rol5-1788 (Flumazepil, 75-85 Ci/mmol, PerkinElmer, MA, USA), with nonspecific binding measured in the presence of 10 μM diazepam.
All binding assays were performed for 1 h at 4° C. in assay buffer. The total assay volume was 0.5 ml containing 0.2 mg/ml protein for α5 and 0.4 mg/ml for α1, α2, and α3 containing GABAAR membranes. Incubations were terminated by filtration through GF/B filters using a 24-Cell Harvestor (Brandel, Gaithersburg, Md., USA) followed by 3 washes with ice-cold assay buffer. Filters were transferred to scintillation vials, 5 ml scintillation liquid added, vortex-mixed and kept in dark. Next day, radioactivity was obtained using a scintillation counter (Beckman Coulter, Brea, Calif., USA). All assays were performed in triplicate.
Data Analyses: Saturation and inhibition curves were obtained using GraphPad Prism software (GraphPad Software, Inc., CA, USA).

[3] = system: GABA α5 versus GABA α1, GABA α2, or GABA α3; experiment: Binding selectivity from [3H]Ro15-1788 binding on GABAAR subtypes
Description: as §2, with “The cell pellets from at least 5 different preps were combined, suspended in the binding assay buffer (50 mM KH2PO4; 1 mM EDTA; 0.2 M KCl, pH 7.4) and membranes prepared by sonication (3-5 times, 30 sec) using Branson Sonifier 150 (G. Heinmann, Germany).” left out, “Aliquots were prepared and stored at −20° C. for further use in binding assays.” left out
as §3
All binding assays were performed for 1 h at 4° C. in assay buffer. […] Next day, radioactivity was obtained using a scintillation counter (Beckman Coulter, Brea, Calif., USA). […]

GABAA receptors (α5β2γ2) = biological target: T4, GABAA receptors (α5β2γ2) (Homo sapiens, UniProt P18507+P31644); experiment: Positive allosteric modulator activity: potentiation of EC20 GABA current in oocytes; format: cell-based; conditions: @ 100 nM
T4 construct: expressed in transfected cells
T4 sequence (P31644 32-462): T2 sequence (P31644 32-462)
T4 sequence (P47870 25-512 partner limits assumed): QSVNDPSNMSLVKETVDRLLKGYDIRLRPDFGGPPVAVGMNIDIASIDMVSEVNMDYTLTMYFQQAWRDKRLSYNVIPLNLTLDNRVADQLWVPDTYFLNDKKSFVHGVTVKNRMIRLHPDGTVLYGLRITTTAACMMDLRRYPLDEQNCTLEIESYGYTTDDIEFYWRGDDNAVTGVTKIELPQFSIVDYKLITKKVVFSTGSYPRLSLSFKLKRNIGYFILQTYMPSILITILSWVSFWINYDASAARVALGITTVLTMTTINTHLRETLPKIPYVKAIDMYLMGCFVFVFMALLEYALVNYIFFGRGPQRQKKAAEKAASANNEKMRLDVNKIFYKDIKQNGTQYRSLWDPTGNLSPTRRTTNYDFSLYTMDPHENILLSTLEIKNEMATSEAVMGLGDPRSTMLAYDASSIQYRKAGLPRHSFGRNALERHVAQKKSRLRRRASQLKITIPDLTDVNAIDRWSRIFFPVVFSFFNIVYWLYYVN
T4 sequence (P18507 40-467 limits assumed): T2 sequence (P18507 40-467 limits assumed)
Description: On day 1, 1 ng/32 nL of GABAA α5β2γ2 cDNA was injected into one oocyte. Test starts on day 2. The cDNA injected to the oocytes was a mix of alpha, beta and gamma, their ratio is 1:1:10 (by weight) and the total weight of the mixed 3 subunits to be injected in one oocyte was 1 ng in 32 nl volume. The injected oocytes can also be tested on day 3. In such case, the cDNA amount injected to the oocytes should be reduced by 20%.
1). 8 oocytes were placed in 8 chambers of OpusXpress and superfused with Modified Barth's Saline (MBS) at 3 mL/min. Glass electrodes back-filled with 3M KCl (0.5-3 megaohms) were used. […] 2). […] 3).
1). New oocytes were used to run new test. 2). […] 3). […] Oocytes were washed with MBS for 5-10 min. 4). […] Itest was divided by IGABA to obtain potentiation (%).
1). Repeat the above steps 1), 2) and 3) in the control test. 2). […] Divide Itest by IGABA to obtain potentiation (%). 3). Discard all tested oocytes, new oocytes were used and the above steps 1) and 2) were repeated to test second concentration of the same compound. Each oocyte was used for only one concentration test for a single test compound. The steps were repeated for other test compounds.

T1 sequence (P19969 32-464 limits assumed): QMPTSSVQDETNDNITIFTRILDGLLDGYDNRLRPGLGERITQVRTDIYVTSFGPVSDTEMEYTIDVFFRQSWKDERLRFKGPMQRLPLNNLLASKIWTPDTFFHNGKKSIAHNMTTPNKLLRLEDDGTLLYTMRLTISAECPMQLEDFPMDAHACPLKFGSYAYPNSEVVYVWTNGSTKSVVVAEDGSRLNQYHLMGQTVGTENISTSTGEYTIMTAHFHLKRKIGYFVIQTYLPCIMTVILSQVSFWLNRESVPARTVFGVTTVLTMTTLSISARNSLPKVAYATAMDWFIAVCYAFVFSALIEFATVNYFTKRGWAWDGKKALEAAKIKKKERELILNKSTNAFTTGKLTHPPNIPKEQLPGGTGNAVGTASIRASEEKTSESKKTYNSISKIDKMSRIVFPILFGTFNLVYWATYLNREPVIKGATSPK

Compound	average no. of errors ± SEM in retention test (aged-impaired (AI) rats)	memory performance relative to vehicle control (aged-impaired (AI) rats)	effect on Ro 15-4513 binding in hippocampus and cerebellum (GABAA α5 receptor; 0.01-10 mg/kg, i.v.)	GABAA α5 receptors occupied in hippocampus (GABAA α5 receptor; at exposures behaviorally active in aged-impaired rats)	receptor occupancy depending on method (GABAA α5 receptor; exposure of 180 ng/g in hippocampus (1 mg/kg, i.v.))	ED50 of receptor occupancy, ratio method (GABAA α5 receptor; i.v., ratio method)	receptor occupancy at 10 mg/kg (GABAA α5 receptor; rat, iv, 10 mg/kg)	increase in hippocampal exposure ([1]; dose from 0.1 to 1 mg/kg, i.v.)	increase in exposure in hippocampus and plasma ([1]; dose from 1 to 3 mg/kg, ip, young and aged rats)	increase in hippocampal exposure ([1]; dose from 1 to 10 mg/kg, i.v.)	increase in plasma exposure ([1]; dose from 1 to 10 mg/kg, i.v.)	α5 in vitro efficacy (EC20) (α5-containing GABAA R)	Ki [2]	Binding selectivity for GABA α5 versus GABA α1, GABA α2, or GABA α3 [3]	GABA α5 functional potentiation (GABAA receptors (α5β2γ2))
COC(=O)c1c(-c2ccccc2)cnnc1-c1ccccc1 [methyl 3,5-diphenylpyridazine-4-carboxylate]	1.31±0.40	significantly improved memory performance	blocked the binding of Ro154513 in the hippocampus but did not affect binding of Ro15413 in the cerebellum; also recorded: dose-dependently reduced Ro 15-4513 binding in hippocampus, without affecting cerebellum levels of Ro 15-4513	about 32%	32-39%	1.8 mg/kg	> 90%	12 fold	4.5 to 6.6 fold	~5 fold	12 fold	+27	–	–	–
COc1ncc(C#Cc2ncn3c2Cc2cnnn2-c2cc(Cl)ccc2-3)cc1C(F)(F)F [Compound 733]	–	–	–	–	–	–	–	–	–	–	–	–	< 100 nM	>100-fold	–
COCc1nnn2c1Cc1c(C#Cc3cnc(C)[nH]3)ncn1-c1ccc(Cl)cc1-2 [Compound 739]	–	–	–	–	–	–	–	–	–	–	–	–	< 100 nM	–	>50% @ 100 nM
